From ChEMBL document CHEMBL4184337, “Discovery of Orally Bioavailable, Quinoline-Based Aldehyde Dehydrogenase 1A1 (ALDH1A1) Inhibitors with Potent Cellular Activity” (J Med Chem, 2018)

Legend:
Rattus norvegicus [1] = assay: Oral bioavailability in Sprague-Dawley rat at 10 mg/kg by LC-MS/MS method; format: ADME, organism-based; conditions: in vivo
Mus musculus [2] = assay: Cmax in CD1 mouse at 2 mg/kg, iv measured at 5 mins by LC-MS/MS method; format: ADME, organism-based; set-up: dose 2 mg/kg, route intravenous; conditions: in vivo
Rattus norvegicus [3] = assay: Cmax in Sprague-Dawley rat at 2 mg/kg, iv measured at 5 mins by LC-MS/MS method; format: ADME, organism-based; set-up: dose 2 mg/kg, route intravenous; conditions: in vivo
[4] = Apparent permeability across basolateral to apical side in human Caco2 cells; format: ADME, cell-based; conditions: caco-2
Mus musculus [5] = assay: Cmax in CD1 mouse at 10 mg/kg, po measured at 5 mins by LC-MS/MS method; format: ADME, organism-based; set-up: dose 10 mg/kg, route oral; conditions: in vivo
[6] = Apparent permeability across apical to basolateral side in human Caco2 cells; format: ADME, cell-based; conditions: caco-2
[7] = Volume of distribution at steady state in Sprague-Dawley rat at 2 mg/kg, iv by LC-MS/MS method; format: ADME, organism-based; conditions: in vivo, read-out: Vdss
Rattus norvegicus [8] = assay: Cmax in Sprague-Dawley rat at 10 mg/kg, po measured at 5 mins by LC-MS/MS method; format: ADME, organism-based; set-up: dose 10 mg/kg, route oral; conditions: in vivo
[9] = Permeability of the compound by PAMPA; format: ADME
Mus musculus [10] = assay: Oral bioavailability in CD1 mouse at 10 mg/kg by LC-MS/MS method; format: ADME, organism-based; conditions: in vivo
[11] = AUC (0 to infinity) in Sprague-Dawley rat at 10 mg/kg, po by LC-MS/MS method; format: ADME, organism-based; set-up: dose 10 mg/kg, route oral, time infinity; conditions: in vivo
[12] = AUC (0 to infinity) in Sprague-Dawley rat at 2 mg/kg, iv by LC-MS/MS method; format: ADME, organism-based; set-up: dose 2 mg/kg, time infinity, route intravenous; conditions: in vivo
[13] = Solubility of compound; format: physicochemical

Row | SMILES | F (Rattus norvegicus [1]) [%] | Cmax (Mus musculus [2]) [ng/mL] | Cmax (Rattus norvegicus [3]) [ng/mL] | Papp [4] [×10⁻⁶ cm/s] | Cmax (Mus musculus [5]) [ng/mL] | Papp [6] [×10⁻⁶ cm/s] | Vd [7] [L/kg] | Cmax (Rattus norvegicus [8]) [ng/mL] | permeability [9] [×10⁻⁶ cm/s] | F (Mus musculus [10]) [%] | AUC(0-inf) [11] [ng·h/mL] | AUC(0-inf) [12] [ng·h/mL] | solubility [13] [µg/mL]
1 | CS(=O)(=O)N1CCN(C(=O)c2cnc3ccc(F)cc3c2-c2ccc(C3(C#N)CC3)cc2)CC1 | 48 | 1997 | 2587 | 22.4 | 1530 | 5.76 | 0.7 | 1980 | 388 | 76 | 7540 | 3160 | 
2 | CS(=O)(=O)N1CCN(C(=O)c2cnc3ccc(F)cc3c2N2CCC(C#N)(c3ccccc3)CC2)CC1 |  | 2350 |  | 17.2 | 1234 | 11.4 |  |  | 725 | 44 |  |  | 
3 | COc1ccc(S(=O)(=O)c2cnc3ccc(OC)cc3c2N2CCC3(CC2)OCCO3)cc1 |  |  |  |  |  |  |  |  |  |  |  |  | < 1
